The results in this text go back to a melting point compilation (Tetko et al.).

For orientation: melting point means the temperature, or range, at which the solid turns liquid. `O=Cc1ccc(N2CCNC(=O)C2)cc1` gave a melting point of 192 to 194 °C.

Compound `OCc1cnc2ccccc2c1` came in with a melting point of 82 to 84 °C.

In turn, `O=S(=O)(Cl)c1c(Cl)ccnc1Cl` gave a melting point of 79 to 81 °C.

Consider `C#Cc1cccc(NC(=O)CCl)c1`, for which the melting point lay in the range of 120 to 122 °C.

In turn, `CCCC=C(C#N)C(=O)O` came in with a melting point of 96 to 98 °C.

For the compound `CCOC(=O)c1c[nH]cc1C(F)(F)F`, the melting point fell in the range of 161 to 163 °C.

With `O=C(Nc1ccc(Cl)cn1)C1CCCNC1` (stereo not drawn), the melting point was in the range of 156 to 158 °C.

On to `N#Cc1ccc(-c2nnc(CCl)o2)cc1`, for which the melting point is 143 to 145 °C.

For the compound `Cc1ccc(Br)c(C(=O)O)c1`, the melting point fell in the range of 139 to 141 °C.

Consider `Cc1[nH]c(-c2cccnc2)nc(=NN)c1C`, for which the melting point is 194 to 196 °C.

The compound `COc1ccccc1-c1nnc(S)n1CCc1ccccc1` had a melting point of 87 to 89 °C.

Turning to `O=C(O)c1cc(=O)n(Cc2ccccc2)c2ccccc12`, the melting point was 215 to 217 °C.

Regarding `O=C(O)CC(C(=O)O)c1ccccc1F` (stereo not drawn), the melting point lay in the range of 169 to 171 °C.

As for `O=[N+]([O-])c1ccc(Cl)cc1CBr`, the melting point lay within 61 to 63 °C.

Take `Cc1cnc2c(c1)NC(=O)CN2`: the melting point fell in the range of 249 to 251 °C.

In turn, `Cc1cc(C=O)c(C)n1C1CC1` yielded a melting point of 71 to 75 °C.

`NC(=O)c1ccc(Br)c(C(F)(F)F)c1` yielded a melting point of 138 to 140 °C.

Take `Cn1cc(-c2cccc(N)n2)cn1`: the melting point lay within 132 to 134 °C.

As to `COc1cc(CCl)cc(Br)c1OC`, the melting point was in the range of 60 to 62 °C.

Compound `Cc1cc(C(=O)N2CCCCC2C)ccc1N` (stereo not drawn) yielded a melting point of 123 to 125 °C.

In turn, `CC1Oc2c(cccc2C(=O)O)NC1=O` (stereo not drawn) yielded a melting point of 281 to 283 °C.

As to `CC(C)c1ccc(C2(C(=O)O)CCC2)cc1`, the melting point lay within 119 to 121 °C.

`Cc1cc(NC(=O)CCl)n(C)n1` gave a melting point of 115 to 117 °C.

`CC(=O)N1CCc2ccccc2C1CC(=O)O` (stereo not drawn) yielded a melting point of 163 to 167 °C.

Turning to `CS(=O)(=O)Nc1cccc(CC(=O)O)c1`, the melting point was in the range of 156 to 158 °C.

Regarding `NC(=S)c1ncccn1`, the melting point fell in the range of 197 to 199 °C.

`Cc1cc(O)nc(CCl)n1` displayed a melting point of 147 to 149 °C.

The compound `Nc1ccccc1S(=O)(=O)N1CCOCC1` yielded a melting point of 114 to 116 °C.

Consider `Nc1cc(Br)ccc1[N+](=O)[O-]`, for which the melting point was in the range of 143 to 145 °C.

For `CC(C)C(Oc1ccc(Br)cc1)C(=O)O` (stereo not drawn), the melting point was in the range of 105 to 107 °C.

In turn, `CCc1ccc(N2CCC(=O)CC2)cc1` returned a melting point of 43 to 45 °C.

On to `O=C(CCl)Nc1cc([N+](=O)[O-])ccc1F`, for which the melting point was 125 to 127 °C.

Consider `O=C(O)C1CC2COCC(C1)C2=O` (stereo not drawn), for which the melting point lay within 196 to 198 °C.

Compound `c1ccc(Nc2nc3ccccc3s2)cc1` registered a melting point of 139 to 141 °C.

For the compound `O=C1NC(=O)c2cc(S(=O)(=O)Cl)ccc21`, the melting point is 163 to 165 °C.

With `Cc1ccc(C(=O)O)cc1S(=O)(=O)NC1CCCC1`, the melting point fell in the range of 185 to 187 °C.

Compound `O=C1NC(=O)C(CCSSCCC2NC(=O)NC2=O)N1` (stereo not drawn) came in with a melting point of 236 to 238 °C.

Regarding `Cc1cc(-n2nccc2N)ncn1`, the melting point is 59 to 61 °C.

`O=C1c2ccccc2C(=O)N1C1CCC(O)CC1` (stereo not drawn) registered a melting point of 174 to 176 °C.

`Cc1cc(F)cc2c(=O)c(C(=O)O)c[nH]c12` came in with a melting point of 289 to 291 °C.

Compound `Nc1cc(C2CCOCC2)[nH]n1` returned a melting point of 103 to 105 °C.

For `CCNc1ccc(C#N)c(Cl)c1`, the melting point lay within 69 to 71 °C.

In turn, `O=C1C=CC(=O)N1c1cccc2ccccc12` yielded a melting point of 103 to 105 °C.

`O=C1NCCC=C1Cl`: the melting point lay within 76 to 78 °C.

`CN1CC(=O)N(CC(=O)O)C1=O` returned a melting point of 139 to 141 °C.

As to `CC(=O)c1cn(-c2ccccc2)nn1`, the melting point lay within 102 to 104 °C.

In the case of `CCOc1ccc(N)cc1CO`, the melting point is 77 to 79 °C.

As for `CNc1snc(C)c1C(=O)OC`, the melting point lay within 56 to 58 °C.

For `COC(=O)c1noc(C)c1C(C)=O`, the melting point was in the range of 36 to 38 °C.

For `CCC(Br)C(=O)Nc1cc(C)on1` (stereo not drawn), the melting point lay within 103 to 105 °C.

Compound `O=C(O)c1ccc(-c2ccc(OC(F)F)cc2)s1` showed a melting point of 209 to 211 °C.

In turn, `Fc1ccc(C2CNCCO2)cc1` (stereo not drawn) showed a melting point of 56 to 58 °C.

In turn, `COc1ccc(-c2noc(CCC(=O)O)n2)cc1OC` yielded a melting point of 120 to 122 °C.

For the compound `CC(C)(C)Nc1cc(C(=O)O)c(N)cc1F`, the melting point was in the range of 199 to 201 °C.

Compound `CCOc1cc(Br)c([N+](=O)[O-])cc1OCC` came in with a melting point of 62 to 64 °C.

Turning to `NC(=O)c1coc2ccccc12`, the melting point was in the range of 144 to 146 °C.

For `CCOc1ccc(S(=O)(=O)N(C)C)cc1N`, the melting point lay in the range of 124 to 126 °C.

In turn, `O=C(Nc1ccsc1C(=O)O)c1ccc(Br)cc1` registered a melting point of 240 to 242 °C.

As for `CNC(c1ccc(Cl)cc1)c1cccnc1` (stereo not drawn), the melting point fell in the range of 44 to 46 °C.

Compound `O=C(O)CCCc1nc(-c2ccc(Cl)cc2)no1` gave a melting point of 108 to 110 °C.

`ICc1cccc2cccnc12` gave a melting point of 79 to 81 °C.

As for `O=C(O)C(O)CCc1ccccc1` (stereo not drawn), the melting point lay in the range of 114 to 117 °C.

Compound `OCc1ccc(N2CCCC2)cc1` came in with a melting point of 61 to 63 °C.

Consider `CC(C)(C(=O)O)c1cccc(C#N)c1`, for which the melting point is 91 to 93 °C.

Regarding `COc1ccc(Cl)cc1NC(=O)CCN`, the melting point lay within 66 to 68 °C.

`Nc1nn2cc(-c3ccccc3)nc2s1`: the melting point is 183 to 185 °C.

For the compound `NC(=O)c1ccc2c(c1)CCCC2`, the melting point is 140 to 142 °C.

As to `CC(=O)Nc1cc(C)c(S(=O)(=O)Cl)cc1Br`, the melting point was in the range of 109 to 111 °C.

In turn, `Cn1c(C(C)(C)C)nc2cc(N)ccc21` showed a melting point of 164 to 166 °C.

In the case of `CS(=O)(=O)Nc1cccc(I)c1`, the melting point was in the range of 119 to 121 °C.

As for `Cc1[nH]c2c(C(=O)O)cccc2c1C`, the melting point is 206 to 208 °C.

Consider `CN(C)S(=O)(=O)c1ccc(N)c(N)c1`, for which the melting point lay in the range of 193 to 195 °C.

As to `CC(CC(=N)N)NC(=O)OC(C)(C)C` (stereo not drawn), the melting point lay in the range of 91 to 93 °C.

Take `Cc1nnnn1C(Cc1ccc(F)cc1)C(=O)O` (stereo not drawn): the melting point was in the range of 152 to 154 °C.

Turning to `O=C1COc2ccncc2N1`, the melting point lay in the range of 268 to 270 °C.

The compound `O=C(O)c1ccc(S(=O)(=O)N2CCCC2)cc1` returned a melting point of 243 to 245 °C.

The compound `Nc1ncnc(Nc2ccc(F)cc2)n1` displayed a melting point of 249 to 251 °C.

In turn, `Oc1cc(C(F)(F)F)nc(-c2cccnc2)n1` registered a melting point of 277 to 279 °C.

In the case of `O=C(O)c1cccn1Cc1ccccc1`, the melting point was in the range of 124 to 126 °C.

In the case of `N#CCC(=O)c1ccc(F)cc1`, the melting point was 84 to 88 °C.

The compound `O=C(O)c1ccc(CCC(F)(F)F)cc1` returned a melting point of 211 to 213 °C.

Take `Sc1nnc(-c2ccc(Cl)cc2)n1Cc1ccco1`: the melting point was in the range of 117 to 119 °C.

`FC(F)(F)c1cccc(-c2ncc[nH]2)c1` registered a melting point of 151 to 153 °C.

With `Oc1ccc2c(O)ccnc2c1`, the melting point lay in the range of 207 to 209 °C.

In turn, `Cc1cc(COc2ccc(C=O)cc2)oc1C(=O)O` yielded a melting point of 179 to 181 °C.

Turning to `CSc1ccc(C)c(C(=O)O)c1`, the melting point lay within 128 to 130 °C.

In turn, `O=C(O)c1ccccc1CSc1nnc[nH]1` displayed a melting point of 177 to 179 °C.

With `O=C(O)CCc1nc2cc(C(F)(F)F)ccc2n(Cc2ccccc2)c1=O`, the melting point fell in the range of 171 to 173 °C.
